Columns and labels:
[1] = log P by HPLC on reversed-phase columns (C 18), EEC Directive 79/831 Annex V.A8; assay type: physicochemical; conditions: reversed-phase C18 HPLC column, pH 2.3, [a] HPLC, acid region pH 2.3, 0.1% aqueous phosphoric acid and acetonitrile; read-out: log p
Alternaria solani = experiment: Alternaria test (tomato)/protective; assay type: in vivo; conditions: 72 h, 100 ppm active substance, protective, evaluation 3 days after inoculation, read-out: degree of effectiveness
Procedure: (§1) • Solvents: 24.5 parts by weight of acetone • 24.5 parts by weight of dimethylacetamide • Emulsifier: 1 part by weight of alkylaryl polyglycol ether (polyoxyethylene (16) tristearylphenyl ether)
(§2) To prepare a suitable active substance composition, 1 part by weight of active substance is mixed with the given amounts of solvents and emulsifier and the concentrate is diluted to the desired concentration using water.
For the testing of protective effectiveness, young plants are sprayed with the active substance composition in the application rate given. After the spray coating has been dried on, the plants are inoculated with an aqueous suspension of spores of Alternaria solani. The plants are then placed in an incubation chamber at approximately 20° C. and 100% relative humidity.
Evaluation is carried out 3 days after the inoculation. In this connection, 0% means a degree of effectiveness corresponding to that of the control, while a degree of effectiveness of 100% means that no infestation is observed.

Uromyces appendiculatus = experiment: Uromyces test (beans)/protective; assay type: in vivo; conditions: 240 h, 100 ppm active substance, protective, evaluation 10 days after inoculation, read-out: degree of effectiveness
Procedure: as §1, §2
For the testing of protective effectiveness, young plants are sprayed with the active substance composition in the application rate given. After the spray coating has been dried on, the plants are inoculated with an aqueous suspension of the spores of the bean rust pathogen Uromyces appendiculatus and then remain in an incubation chamber at approximately 20° C. and 100% relative humidity for 1 day.
The plants are then placed in a greenhouse at approximately 21° C. and a relative humidity of approximately 90%.
Evaluation is carried out 10 days after the inoculation. In this connection, 0% means a degree of effectiveness corresponding to that of the control, while a degree of effectiveness of 100% means that no infestation is observed.

Sphaerotheca fuliginea = experiment: Sphaerotheca test (cucumber)/protective; assay type: in vivo; conditions: Podosphaera fuliginea, 168 h, 500 ppm active substance, protective, evaluation 7 days after inoculation, read-out: degree of effectiveness
Procedure: • Solvents: 49 parts by weight of N,N-dimethylformamide • Emulsifier: 1 part by weight of alkylaryl polyglycol ether (polyoxyethylene (16) tristearylphenyl ether) To prepare a suitable active substance composition, 1 part by weight of active substance is mixed with the given amounts of solvents and emulsifier and the concentrate is diluted to the desired concentration using water. For the testing of protective effectiveness, young cucumber plants are sprayed with the active substance composition in the application rate given. One day after the treatment, the plants are inoculated with a suspension of spores of Sphaerotheca fuliginea. Subsequently, the plants are placed in a greenhouse at 70% relative humidity and at a temperature of 23° C. Evaluation is carried out 7 days after the inoculation. In this connection, 0% means a degree of effectiveness corresponding to that of the control, while a degree of effectiveness of 100% means that no infestation is observed.

Puccinia triticina = Puccinia triticina test (wheat)/protective; assay type: in vivo; conditions: 192 h, 500 ppm active substance, protective, evaluation 8 days after inoculation, read-out: degree of effectiveness
Procedure: • Solvent: 50 parts by weight of N,N-dimethylacetamide • Emulsifier: 1 part by weight of alkylaryl polyglycol ether (polyoxyethylene (16) tristearylphenyl ether) To prepare a suitable active substance composition, 1 part by weight of active substance is mixed with the given amounts of solvent and emulsifier and the concentrate is diluted to the desired concentration using water. For the testing of protective effectiveness, young plants are sprayed with the active substance composition in the application rate given. After the spray coating has been dried on, the plants are sprayed with spores with a suspension of spores of Puccinia triticina. The plants remain in an incubation chamber at 20° C. and 100% relative humidity for 48 hours. The plants are placed in a greenhouse at a temperature of approximately 20° C. and a relative humidity of approximately 80%. Evaluation is carried out 8 days after the inoculation. In this connection, 0% means a degree of effectiveness corresponding to that of the control, while a degree of effectiveness of 100% means that no infestation is observed.

Septoria tritici = Septoria tritici test (wheat)/protective; assay type: in vivo; conditions: Zymoseptoria tritici, 504 h, 500 ppm active substance, protective, evaluation 21 days after inoculation, read-out: degree of effectiveness
Procedure: • Solvent: 50 parts by weight of N,N-dimethylacetamide • Emulsifier: 1 part by weight of alkylaryl polyglycol ether (polyoxyethylene (16) tristearylphenyl ether) To prepare a suitable active substance composition, 1 part by weight of active substance is mixed with the given amounts of solvent and emulsifier and the concentrate is diluted to the desired concentration using water. For the testing of protective effectiveness, young plants are sprayed with the active substance composition at the application rate given. After the spray coating has dried on, the plants are sprayed with a suspension of spores of Septoria tritici. The plants remain in an incubation chamber at 20° C. and 100% relative humidity for 48 hours. The plants are afterwards placed under a transparent hood at 15° C. and 100% relative humidity for a further 60 hours. The plants are placed in a greenhouse at a temperature of approximately 15° C. and a relative humidity of 80%. Evaluation is carried out 21 days after the inoculation. In this connection, 0% means a degree of effectiveness corresponding to that of the control, while a degree of effectiveness of 100% means that no infestation is observed.

| Structure (SMILES) | chromatographic logP [1] | pest or weed control at 100 ppm (Alternaria solani) [%] | pest or weed control at 100 ppm (Uromyces appendiculatus) [%] | pest or weed control at 500 ppm (Sphaerotheca fuliginea) [%] | pest or weed control at 500 ppm (Puccinia triticina) [%] | pest or weed control at 500 ppm (Septoria tritici) [%] |
| --- | --- | --- | --- | --- | --- | --- |
| CCC(c1ccccc1)c1nsc(Oc2cc(C)c(N=CN(C)CC)cc2C)n1 (centres unmarked) [Example 6, N′-(2,5-dimethyl-4-{[3-(1-phenylpropyl)-1,2,4-thiadiazol-5-yl]oxy}phenyl)-N-ethyl-N-methylimidoformamide] | 2.08 | ≥ 70 | ≥ 70 | ≥ 70 | ≥ 70 | ≥ 70 |
| CCC(c1ccccc1)c1nsc(Oc2cc(C)c(N=CN3CCCCC3)cc2C)n1 (centres unmarked) [Example 7, 2,5-dimethyl-4-{[3-(1-phenylpropyl)-1,2,4-thiadiazol-5-yl]oxy}-N-(piperidin-1-ylmethylidene)aniline] | 2.21 | ≥ 70 | ≥ 70 | ≥ 70 | ≥ 70 | ≥ 70 |
| Cc1cc(Oc2nc(C(C)c3ccccc3)ns2)c(C)cc1N=CN1CCCCC1 (centres unmarked) [Example 8, 2,5-dimethyl-4-{[3-(1-phenylethyl)-1,2,4-thiadiazol-5-yl]oxy}-N-(piperidin-1-ylmethylidene)aniline] | 1.95 | ≥ 70 | ≥ 70 | ≥ 70 | ≥ 70 | ≥ 70 |
| Cc1cc(Oc2nc(Cc3ccc(Cl)cc3)ns2)c(C)cc1N=CN(C)C(C)C [Example 9, N′-(4-{[3-(4-chlorobenzyl)-1,2,4-thiadiazol-5-yl]oxy}-2,5-dimethylphenyl)-N-methyl-N-(propan-2-yl)imidoformamide] | 2.03 | ≥ 70 | ≥ 70 | ≥ 70 | ≥ 70 | ≥ 70 |
| CCN(C)C=Nc1cc(C)c(Oc2nc(Cc3cccc(C(F)(F)F)c3)ns2)cc1C [Example 10, N′-[2,5-dimethyl-4-({3-[3-(trifluoromethyl)benzyl]-1,2,4-thiadiazol-5-yl}oxy)phenyl]-N-ethyl-N-methylimidoformamide] | 2.05 | ≥ 70 | ≥ 70 | ≥ 70 | ≥ 70 | ≥ 70 |

Now from value to molecule, other results behind:

| chromatographic logP [1] | Structure (SMILES) | pest or weed control at 100 ppm (Alternaria solani) [%] | pest or weed control at 100 ppm (Uromyces appendiculatus) [%] | pest or weed control at 500 ppm (Sphaerotheca fuliginea) [%] | pest or weed control at 500 ppm (Puccinia triticina) [%] | pest or weed control at 500 ppm (Septoria tritici) [%] |
| --- | --- | --- | --- | --- | --- | --- |
| 2.28 | Cc1cc(Oc2nc(Cc3cccc(C(F)(F)F)c3)ns2)c(C)cc1N=CN1CCCCC1 [Example 13, 2,5-dimethyl-N-(piperidin-1-ylmethylidene)-4-({3-[3-(trifluoromethyl)benzyl]-1,2,4-thiadiazol-5-yl}oxy)aniline] | ≥ 70 | ≥ 70 | ≥ 70 | ≥ 70 | ≥ 70 |
| 2.05 | CCN(C)C=Nc1cc(C)c(Oc2nc(Cc3c(Cl)cccc3Cl)ns2)cc1C [Example 15, N′-(4-{[3-(2,6-dichlorobenzyl)-1,2,4-thiadiazol-5-yl]oxy}-2,5-dimethylphenyl)-N-ethyl-N-methylimidoformamide] | ≥ 70 | ≥ 70 | ≥ 70 | ≥ 70 | ≥ 70 |
| 2.15 | Cc1cc(Oc2nc(Cc3ccccc3C(F)(F)F)ns2)c(C)cc1N=CN1CCCCC1 [Example 43, 2,5-dimethyl-N-(piperidin-1-ylmethylidene)-4-({3-[2-(trifluoromethyl)benzyl]-1,2,4-thiadiazol-5-yl}oxy)aniline] | ≥ 70 | ≥ 70 | ≥ 70 | ≥ 70 |  |
